Reference: PubChem BioAssay (NCI)
Values joined by “and” are separate entries in the source; they are usually repeats but may differ in a detail not shown here. Equal values may be shown once.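 These data come from cells grown in 96-well plates and exposed to compound for 48 hours at five concentrations. GI50 marks 50% less growth. At the TGI there is no net growth.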

Key:
Assay in all cases: NCI anticancer screen, dose series, 48 h
786-0 renal = test system: 786-0 renal
CAKI-1 renal = test system: CAKI-1 renal
DU-145 prostate = test system: DU-145 prostate
EKVX NSCLC = test system: EKVX NSCLC
RPMI-8226 leukemia = test system: RPMI-8226 leukemia
SK-MEL-2 melanoma = test system: SK-MEL-2 melanoma
SK-MEL-28 melanoma = test system: SK-MEL-28 melanoma
SNB-19 CNS = test system: SNB-19 CNS
HOP-18 NSCLC = test system: HOP-18 NSCLC
M19-MEL melanoma = test system: M19-MEL melanoma

Row | SMILES | GI50 (786-0 renal) [nM] | TGI (786-0 renal) [µM] | GI50 (CAKI-1 renal) [nM] | TGI (CAKI-1 renal) [µM] | GI50 (DU-145 prostate) [nM] | TGI (DU-145 prostate) [µM] | GI50 (EKVX NSCLC) [µM] | TGI (EKVX NSCLC) | GI50 (RPMI-8226 leukemia) [nM] | TGI (RPMI-8226 leukemia) [µM] | GI50 (SK-MEL-2 melanoma) [nM] | TGI (SK-MEL-2 melanoma) [µM] | GI50 (SK-MEL-28 melanoma) [nM] | TGI (SK-MEL-28 melanoma) [µM] | GI50 (SNB-19 CNS) [nM] | TGI (SNB-19 CNS) [µM] | TGI (HOP-18 NSCLC) [µM] | TGI (M19-MEL melanoma) [µM]
1 | Fc1ccc2c(c1)C1=NN(c3ccccc3)C(F)C1CO2 (centres undefined) | 12800 | > 50 | 6410 | 20.2 | 5180 | 21.8 | 5.64 | 16.4 µM | 9040 | 33.4 | 19400 | > 50 | 9510 | 22 | 26600 | > 50 |  | 
2 | Nc1ccnc(=O)[nH]1 |  | > 100 |  | > 100 |  |  |  | > 100 µM |  | > 100 |  | > 100 |  | > 100 |  |  | > 100 | > 100
3 | C=C1CCC2C3(C)COC(c4ccc(N(C)C)cc4)OC3CCC2(C)C1C/C=C1/C(=O)OCC1O (centres undefined) | 10500 | 25.3 | 2120 | 5.66 | 3010 | 10.4 | 6.43 | 21.9 µM | 1230 | 3.8 | 5150 | 13.7 | 2340 | 5.4 | 16400 | 32.3 |  | 
4 | CC(=O)CC(=O)OC1CC(C)CCC1C(C)C (centres undefined) |  | > 100 |  | > 100 |  |  |  | > 100 µM |  | 46.1 |  | 78.8 |  | > 100 |  | > 100 |  | > 100
5 | Cc1ccc(S(=O)(=O)N/N=C/c2c(O)ccc3ccccc23)cc1 |  | > 100 |  | 35.3 |  | > 100 |  | > 100 µM |  | > 100 |  | 49.1 |  | > 100 |  | > 100 |  | 
6 | Cc1cc(O)c(C(C)C)cc1S(=O)(=O)O (tested in a mixture with another compound) | 586 |  | 435 | 10.8 | 363 | 2.45 | 0.678 | > 100 µM and 14.3 µM | 357 |  | 502 | 2.46 | 634 |  | 423 |  |  | > 100
7 | C=C(C)C(=O)O[C@H]1CC(=C)[C@@H]2C[C@H](O)[C@](O)(CCl)[C@@H]2[C@H]2OC(=O)C(=C)[C@@H]21 | 1930 | 3.88 | 1940 | 3.45 | 2160 | 6.33 | 12.3 | 25.7 µM | 1430 | 4.78 | 6590 | 22 | 2020 | 3.9 | 16600 | 32.2 |  | 
8 | C[C@H]1[C@H](C)CC[C@]2(CO)CC[C@]3(C)C(=CC[C@@H]4[C@@]5(C)CCCNC(C)(C)[C@@H]5CC[C@]43C)[C@H]12 | 1600 | 3.06 | 1620 | 3.23 | 1720 | 3.14 | 1.66 | 3.29 µM | 1850 | 4.14 | 1900 | 3.63 | 1750 | 3.3 | 1860 | 3.43 |  | 
9 | N#CC(NC12CC3CC(CC(C3)C1)C2)c1ccc2c(c1)OCO2 (centres undefined) |  | > 100 |  | > 100 |  | > 100 |  | > 100 µM |  | > 100 |  | > 100 |  | > 100 |  | > 100 |  | 
10 | COc1ccc(C2=CC(c3ccc4c(c3)OCO4)c3c(c4ccccc4oc3=O)O2)cc1OC (centres undefined) |  | > 100 |  | > 100 |  | > 100 |  | > 100 µM |  | > 65.3 |  | > 100 |  | > 100 |  | > 100 |  | 
11 | Cc1c(C(N)=O)sc2c1C(=O)N(Cc1ccccc1)C1=NN=C(c3ccc(Cl)cc3)CN12 | 2650 | 6.92 | 1170 | 10.3 | 3440 | 14.5 | 4.7 | 29.8 µM | 4560 | > 100 | 6100 | 18.6 | 5670 | 18.5 | 3710 | 16.1 |  | 
12 | CCOC(=O)N1CCN(C=S)CC1 |  | > 100 |  |  |  |  |  | > 100 µM |  |  |  | > 100 |  | > 100 |  | > 100 | > 100 | > 100
13 | c1ccc2[nH]c(-c3ccc(-c4nccc5c4[nH]c4ccccc45)cc3)nc2c1 | 2240 | 6.3 | 2410 | 7.11 | 4020 | 16.2 | 3.45 | 16.8 µM | 2480 | 5.61 | 1990 | 4.34 | 1960 | 3.75 | 4210 | 30.4 |  | 
14 | CCN(CC)c1c(C(=O)/C=C/c2ccc(OC)cc2)c(-c2ccccc2)nn(C)c1=O |  | 41.2 |  | > 100 |  |  |  | 69.6 µM |  |  |  | 38.7 |  | 35.7 |  | 45.9 | 51.7 | > 100
15 | FC(F)(F)c1ccc(Nc2nc(-c3c(C(F)(F)F)nc4ccccn34)cs2)cc1 | 39.8 | 2.22 | 41.9 | 8.2 | 40.2 | 2.15 | 0.158 | 7.84 µM | 73.9 | 6.01 | 73.4 | 6.76 | 1050 | 16.9 | 62.5 | 18.5 |  | 
16 | COc1cc(C(=O)O[C@H](C(=O)NCCCCCNC(=O)[C@@H](OC(=O)c2cc(OC)cc3c(C)cccc23)[C@]2(C)CO2)[C@]2(C)CO2)c2cccc(C)c2c1 | < 10 | 0.0115 | 355 | 1.89 | 122 |  | 0.635 | 3.72 µM | 1820 | 10.2 | 200 |  | 205 |  | 930 | > 20.4 |  | 
17 | COC1CC(OS(=O)(=O)c2ccc([N+](=O)[O-])cc2)C(OC(=O)c2ccccc2)C(C)O1 (centres undefined) |  | > 100 |  | > 100 |  |  |  |  |  | > 100 |  |  |  | > 100 |  | > 100 | > 100 | > 100
18 | O=C(O)CNC(=O)c1ccc(-c2ccccc2)cc1 |  | > 100 |  | > 100 |  | > 100 |  | > 100 µM |  | > 100 |  | > 100 |  | > 100 |  | > 100 |  | 
19 | COc1ccc(-c2cc(=O)[nH]c3c(OC)c4ccccc4c(OC)c23)cc1 | 532 | > 100 | 376 | > 100 | 671 | > 100 | 2.87 | > 100 µM | 289 | > 20.2 | 486 | > 100 | 3450 | > 100 | 2060 | > 100 |  | 
